Experimental data taken from EP4615450B1 (priority 2023, dated 2024).

System: SARS-CoV2
Assay: PCR test (Ct value) in patients, three successive lozenges (Beispiel 2)
Assay type: in vivo, Patienten
Conditions: result in words; over time with successive administration of several lozenges, also versus placebo
Text: Darüber hinaus wird die antivirale Wirksamkeit einer erfindungsgemäß einsetzbaren Zusammensetzung in Form der in Beispiel 1 beschriebenen Octenidindihydrochlorid-Lutschtablette an weiteren Patienten untersucht. Die Patienten weisen im Hinblick auf SARS-CoV2 vor Verabreichung der Lutschtabletten einen positiven PCR-Test auf (in der nachfolgenden Tabelle 3 unter "Ct0" angegeben).
Die Patienten erhalten insgesamt jeweils drei Octenidindihydrochlorid-Lutschtabletten in definierter zeitlicher Abfolge. Die Lutschzeit beträgt für eine jeweilige Tablette 15 Minuten, wobei jeweils nach jeweils weiteren 15 Minuten ein PCR-Test durchgeführt wird. Der PCR-Test nach Verabreichung der ersten Octenidindihydrochlorid-Lutschtablette wird somit 30 Minuten nach erfolgter Verabreichung durchgeführt (in der nachfolgenden Tabelle 3 unter "Ct1" angeführt).
Die zweite Octenidindihydrochlorid-Lutschtablette wird 2,5 Stunden nach Verabreichung der ersten Lutschtablette verabreicht, wobei der diesbezügliche PCR-Test 3 Stunden nach Verabreichung der ersten Lutschtablette und 30 Minuten nach Verabreichung der zweiten Lutsch-tablette durchgeführt wird (in der nachfolgenden Tabelle 3 unter "Ct2" angeführt). […]

For `CCCCCCCCNc1cc[n+](CCCCCCCCCC[n+]2ccc(NCCCCCCCC)cc2)cc1.[Cl-].[Cl-]` [Octenidindihydrochlorid, 1,1'-(1,10-Decandiyl)bis[4-(octylamino)pyridinium]-dichlorid], the Ct-Wert was “deutliche und nachhaltige Zuname des jeweiligen Ct-Werts”.
